Reference: ChEMBL document CHEMBL1201862, “PubChem BioAssay data set” (2004)
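96-well plates; 48 h exposure; 5 concentrations. Endpoints by linear interpolation between flanking doses. Not reached: highest tested concentration assigned. GI50 is the concentration that inhibits growth by half.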 Activity calls are given as the source filed them. Rule as the data show it: active = GI50 up to about 1.1 µM and inactive = higher.

Legend:
Test in all cases: NCI-60 cell line screen, 48 h
IGROV-1 = test system: IGROV-1
HCC 2998 = test system: HCC 2998
BT-549 = test system: BT-549
Malme-3M = test system: Malme-3M
SW-620 = test system: SW-620
SNB-75 = test system: SNB-75
MDA-MB-435 = test system: MDA-MB-435
SF-268 = test system: SF-268
SK-MEL-28 = test system: SK-MEL-28
K562 = test system: K562
ACHN = test system: ACHN
NCI-H226 = test system: NCI-H226
UACC-62 = test system: UACC-62
CAKI-1 = test system: CAKI-1
CCRF-CEM = test system: CCRF-CEM
PC-3 = test system: PC-3
SN12C = test system: SN12C
NCI-H23 = test system: NCI-H23
A498 = test system: A498

Compound | GI50 (IGROV-1) | GI50 (HCC 2998) | GI50 (BT-549) | GI50 (Malme-3M) | GI50 (SW-620) | GI50 (SNB-75) | GI50 (MDA-MB-435) | GI50 (SF-268) | GI50 (SK-MEL-28) | GI50 (K562) | GI50 (ACHN) | GI50 (NCI-H226) | GI50 (UACC-62) | GI50 (CAKI-1) | GI50 (CCRF-CEM) | GI50 (PC-3) | GI50 (SN12C) | GI50 (NCI-H23) | GI50 (A498)
O=C(CSc1nc2nncc-2c(O)[nH]1)c1ccc(Cl)cc1 | > 100 µM (inactive) | > 100 µM (inactive) | > 100 µM (inactive) | > 100 µM (inactive) | > 100 µM (inactive) | 0.246 µM (active) | > 100 µM (inactive) | > 100 µM (inactive) | > 100 µM (inactive) | > 100 µM (inactive) | > 100 µM (inactive) | > 100 µM (inactive) | > 100 µM (inactive) | > 100 µM (inactive) | > 100 µM (inactive) | > 100 µM (inactive) | > 100 µM (inactive) | > 100 µM (inactive) | –
O=C(NC1CCCCC1)c1nn[nH]c1Cl | > 100 µM (inactive) | > 100 µM (inactive) | > 100 µM (inactive) | – | > 100 µM (inactive) | – | > 100 µM (inactive) | > 100 µM (inactive) | > 100 µM (inactive) | > 100 µM (inactive) | > 100 µM (inactive) | – | > 100 µM (inactive) | > 100 µM (inactive) | > 100 µM (inactive) | > 100 µM (inactive) | > 100 µM (inactive) | > 100 µM (inactive) | > 100 µM (inactive)
c1ccc2c(c1)SCCCSCCCS2 | > 100 µM (inactive) | > 100 µM (inactive) | > 100 µM (inactive) | – | > 100 µM (inactive) | > 100 µM (inactive) | > 100 µM (inactive) | > 100 µM (inactive) | > 100 µM (inactive) | > 100 µM (inactive) | – | – | > 100 µM (inactive) | – | > 100 µM (inactive) | > 100 µM (inactive) | > 100 µM (inactive) | > 100 µM (inactive) | –
CC1CCC2C(C)C(OC(=O)CCC(=O)O)OC3OC4(C)CCC1C32OO4 (centres undefined) | 10.4 µM (inactive) | 5.94 µM (inactive) | 11.2 µM (inactive) | – | 1.57 µM (inactive) | 19.3 µM (inactive) | 1.51 µM (inactive) | 16.7 µM (inactive) | 37.5 µM (inactive) | 1.32 µM (inactive) | 4.52 µM (inactive) | – | 6.15 µM (inactive) | 12.1 µM (inactive) | 3.78 µM (inactive) | 0.353 µM (active) | 18 µM (inactive) | – | 27.2 µM (inactive)
CC(C)=CCc1cc(C2COc3cc4c(c(O)c3C2=O)C=CC(C)(C)O4)c(O)cc1O (centres undefined) | 16.2 µM (inactive) | 18.7 µM (inactive) | 16.3 µM (inactive) | 13.4 µM (inactive) | 22 µM (inactive) | 19.1 µM (inactive) | 16 µM (inactive) | 13.2 µM (inactive) | 22.4 µM (inactive) | 3.08 µM (inactive) | 16.7 µM (inactive) | – | 15.7 µM (inactive) | 17.2 µM (inactive) | 7.53 µM (inactive) | 12.4 µM (inactive) | 13.5 µM (inactive) | 15.6 µM (inactive) | 16.5 µM (inactive)
CC(=O)OC12c3ccccc3C(c3ccccc31)C1C(=O)N(N=C(C)C)C(=O)C12 (centres undefined) | > 100 µM (inactive) | > 100 µM (inactive) | > 100 µM (inactive) | 63.2 µM (inactive) | > 100 µM (inactive) | 51.9 µM (inactive) | – | > 100 µM (inactive) | > 100 µM (inactive) | > 100 µM (inactive) | – | > 100 µM (inactive) | > 100 µM (inactive) | > 100 µM (inactive) | > 100 µM (inactive) | > 100 µM (inactive) | > 100 µM (inactive) | > 100 µM (inactive) | –
CCOc1ccc(/C=C2\NC(=S)N(/C=C3\C(=O)Oc4ccccc4C3=O)C2=O)cc1 | 24.8 µM (inactive) | 32.1 µM (inactive) | 23.6 µM (inactive) | – | 37.8 µM (inactive) | 23 µM (inactive) | 28.8 µM (inactive) | 22.2 µM (inactive) | 36.8 µM (inactive) | – | 25.5 µM (inactive) | 24.7 µM (inactive) | 17.5 µM (inactive) | 23.9 µM (inactive) | 15.1 µM (inactive) | 18.1 µM (inactive) | 19.7 µM (inactive) | 30 µM (inactive) | –
CCOC(=O)C1C(c2ccc(OC)cc2)c2c(n[nH]c2O)CC1(O)OCC (centres undefined) | > 100 µM (inactive) | > 100 µM (inactive) | > 100 µM (inactive) | > 100 µM (inactive) | > 100 µM (inactive) | > 100 µM (inactive) | > 100 µM (inactive) | > 100 µM (inactive) | > 100 µM (inactive) | – | > 100 µM (inactive) | – | > 100 µM (inactive) | > 100 µM (inactive) | > 100 µM (inactive) | > 100 µM (inactive) | > 100 µM (inactive) | > 100 µM (inactive) | > 100 µM (inactive)
CC1(C)O[C@H]2[C@@H]3N=C(c4ccccc4)O[C@@H]3C=C[C@H]2O1 | > 100 µM (inactive) | > 100 µM (inactive) | > 100 µM (inactive) | – | > 100 µM (inactive) | – | > 100 µM (inactive) | 17.6 µM (inactive) | > 100 µM (inactive) | > 100 µM (inactive) | > 100 µM (inactive) | > 100 µM (inactive) | > 100 µM (inactive) | > 100 µM (inactive) | > 100 µM (inactive) | > 100 µM (inactive) | > 100 µM (inactive) | > 100 µM (inactive) | > 100 µM (inactive)
NC12CC3C4CC5(N)CC3C(C1)C(C5)C4C2 | > 100 µM (inactive) | – | > 100 µM (inactive) | > 100 µM (inactive) | > 100 µM (inactive) | – | > 100 µM (inactive) | > 100 µM (inactive) | > 100 µM (inactive) | > 100 µM (inactive) | > 100 µM (inactive) | > 100 µM (inactive) | > 100 µM (inactive) | > 100 µM (inactive) | > 100 µM (inactive) | > 100 µM (inactive) | > 100 µM (inactive) | > 100 µM (inactive) | > 100 µM (inactive)
Cc1ccc(N2C(=O)C=C(C3=C(O)C(=O)N(c4ccc(C)cc4)C3=O)C2=O)cc1 | > 100 µM (inactive) | > 100 µM (inactive) | > 100 µM (inactive) | > 100 µM (inactive) | > 100 µM (inactive) | 42.3 µM (inactive) | > 100 µM (inactive) | > 100 µM (inactive) | > 100 µM (inactive) | > 100 µM (inactive) | > 100 µM (inactive) | > 100 µM (inactive) | > 100 µM (inactive) | – | > 100 µM (inactive) | > 100 µM (inactive) | > 100 µM (inactive) | > 100 µM (inactive) | > 100 µM (inactive)
C=CCNC1=C2C[C@@H](C)C[C@@H](OC)[C@H](OC(=O)CCN(C)C)[C@H](C)/C=C(\C)[C@@H](OC(N)=O)[C@H](OC)/C=C\C=C(/C)C(=O)NC(=CC1=O)C2=O | 0.13 µM (active) | 0.0641 µM (active) | 12.9 µM (inactive) | 0.0643 µM (active) | 0.0578 µM (active) | 0.1 µM (active) | 0.053 µM (active) | 1.35 µM (inactive) | 0.171 µM (active) | 0.156 µM (active) | 0.875 µM (active) | – | 0.0545 µM (active) | 1.88 µM (inactive) | 3.09 µM (inactive) | 0.0386 µM (active) | 0.0869 µM (active) | 0.0547 µM (active) | 0.297 µM (active)
O=C(NC1=C(Cl)C(=O)c2ccccc2C1=O)c1ccc(F)cc1 | 1.7 µM (inactive) | 3.48 µM (inactive) | 3.46 µM (inactive) | 1.52 µM (inactive) | 0.776 µM (active) | 5.83 µM (inactive) | 4.45 µM (inactive) | 7.57 µM (inactive) | 4.86 µM (inactive) | 0.91 µM (active) | 0.938 µM (active) | 1.1 µM (active) | 0.279 µM (active) | – | 0.802 µM (active) | 1.13 µM (inactive) | 3.41 µM (inactive) | 3.27 µM (inactive) | –
CC[C@@H]1CC[C@@H]2[C@H](CC[C@]3(C)[C@@H](OS(=O)(=O)c4ccc(C)cc4)CC[C@@H]23)[C@H]1COS(=O)(=O)c1ccc(C)cc1 | > 100 µM (inactive) | > 100 µM (inactive) | > 100 µM (inactive) | > 100 µM (inactive) | > 100 µM (inactive) | – | > 100 µM (inactive) | > 100 µM (inactive) | > 100 µM (inactive) | > 100 µM (inactive) | > 100 µM (inactive) | > 100 µM (inactive) | – | – | > 100 µM (inactive) | > 100 µM (inactive) | > 100 µM (inactive) | – | > 100 µM (inactive)
O=c1c2ccccc2[nH]c(=S)n1-c1ccc(/N=N/c2cccc3c(O)cccc23)cc1 | 55.3 µM (inactive) | > 100 µM (inactive) | > 100 µM (inactive) | 88.9 µM (inactive) | > 100 µM (inactive) | > 100 µM (inactive) | 23 µM (inactive) | > 100 µM (inactive) | > 100 µM (inactive) | 36.2 µM (inactive) | 88.3 µM (inactive) | > 100 µM (inactive) | 24.4 µM (inactive) | > 100 µM (inactive) | > 100 µM (inactive) | 67.6 µM (inactive) | > 100 µM (inactive) | > 100 µM (inactive) | –
O=C(NCc1ccccc1)c1nn[nH]c1O | > 100 µM (inactive) | > 100 µM (inactive) | > 100 µM (inactive) | > 100 µM (inactive) | > 100 µM (inactive) | > 100 µM (inactive) | > 100 µM (inactive) | > 100 µM (inactive) | > 100 µM (inactive) | > 100 µM (inactive) | > 100 µM (inactive) | > 100 µM (inactive) | > 100 µM (inactive) | > 100 µM (inactive) | > 100 µM (inactive) | > 100 µM (inactive) | > 100 µM (inactive) | > 100 µM (inactive) | –
